≈ marks a conversion by molar mass, not a printed value. Where “and” joins values, the source holds several entries; their conditions need not be identical. Equal values may be shown once.
Legend:
[1] = tested on: Staphylococcus aureus 308 A-1; assay: MIC by agar dilution method (Trypticase soy agar), Staphylococcus aureus 308 A-1; format: cell-based; conditions: 308A1, 37° C. overnight
Experimental: (§1) The MIC of each test compound (the compounds obtained in Examples 1 and 2) was determined by the agar dilution method. Thus, 1.0 ml aliquots of serial dilutions of the test compound in water were poured into petri dishes, and 9.0 ml of Trypticase soy agar is added to each dish and stirred. A suspension (about 10^8 CFU/ml) of each test organism is smeared on each agar plate, which is then incubated at 37° C. overnight. The lowest concentration of the test compound which causes a complete growth inhibition of the test organism was determined and taken as the MIC (minimal inhibitory concentration) against the same organism.
(1) Staphylococcus aureus 308 A-1

[2] = tested on: Staphylococcus aureus 1840; assay: MIC by agar dilution method (Trypticase soy agar), Staphylococcus aureus 1840; format: cell-based; conditions: (2) Staphylococcus aureus 1840, 37° C. overnight
Experimental: as §1
(2) Staphylococcus aureus 1840

[3] = tested on: Proteus morganii IFO 3168; assay: MIC by agar dilution method (Trypticase soy agar), Proteus morganii IFO 3168; format: cell-based; conditions: Morganella morganii, IFO3168, (3) Proteus morganii IFO 3168, 37° C. overnight
Experimental: as §1
(3) Proteus morganii IFO 3168

[4] = tested on: Pseudomonas aeruginosa P 9; assay: MIC by agar dilution method (Trypticase soy agar), Pseudomonas aeruginosa P 9; format: cell-based; conditions: P9, (4) Pseudomonas aeruginosa P 9, 37° C. overnight
Experimental: as §1
(4) Pseudomonas aeruginosa P 9

[5] = concentration levels in plasma upon rectal administration (suppository), by biological assay; format: in vivo, rat (Wistar; conditions: rectal suppository 50 mg/kg, fasted male Wistar rats
Experimental: Employing the compound (I) prepared in Example 1 mentioned below, the concentration levels in plasma (plasma levels of said compound) upon rectal administration were measured by the procedure described below.
Suppositories containing the product of Example 1 which were prepared according to Example 3 mentioned below were given (50 mg/kg in terms of said product) into the rectum of three male rats No. 1 to 3 (Wistar, body weight of 300 to 400 g) being fasted for 20 hours. The anuses were closed with an adhesive agent, and blood sample were taken from the tail veins after 0.5, 1, 2 and 4 hours to determine quantitatively the plasma levels of the product of Example 1 by means of the biological assay method. As the test microorganisms for the assay, Escherichia coli NIHJ and Proteus rettgeri ATCC 9250 were employed.
A 250 mg portion of finely divided 7β-[2-(5-amino-1,2,4-thiadiazol-3-yl)-(Z)-2-methoxyiminoacetamido]-3- [(6-aminoimidazo[1,2-b]pyridazinium-1-yl)methyl]-3-cephem-4-carboxylate and 4750 mg of Isocacao MO-5 (produced by Kao, Ltd. in Japan) were uniformly sitrred at 40° to 45° C. and cooled to 35° C. under stiring, followed by filling the mixture into a suppository container made of plastics and gradually cooling to obtain a suppository.

MIC [1] | MIC [2] | MIC [3] | MIC [4] | Concentration levels in plasma, 0.5 hr ([5]; 0.5 hr, individual rats: No. 1, No. 2, No. 3, 30 min) | Concentration levels in plasma, 1 hr ([5]; 1 hr, individual rats: No. 1, No. 2, No. 3, 60 min) | Concentration levels in plasma, 2 hr ([5]; 2 hr, individual rats: No. 1, No. 2, No. 3, 120 min) | Concentration levels in plasma, 4 hr ([5]; 4 hr, individual rats: b116 = No. 1, b117 = No. 2 (No. 3 not tested), 240 min) | concentration at 4 h ([5]; rat, plasma, 50 mg/kg, 4 hr, individual rats: b116 = No. 1, b117 = No. 2 (No. 3 not tested)) | Structure (SMILES)
0.39 µg/mL (≈ 0.735 µM) | 0.78 µg/mL (≈ 1.47 µM) | 0.2 µg/mL (≈ 0.377 µM) | 0.39 µg/mL (≈ 0.735 µM) | 130 ng/mL and 2400 ng/mL and 5700 ng/mL | 740 ng/mL and 4200 ng/mL and 5900 ng/mL | 1700 ng/mL and 4600 ng/mL and 2700 ng/mL | 2800 ng/mL | 4300 ng/mL | CO/N=C(\C(=O)N[C@@H]1C(=O)N2C(C(=O)[O-])=C(C[n+]3ccn4nc(N)ccc43)CS[C@H]12)c1nsc(N)n1 [Example 1, 7β-[2-(5-amino-1,2,4-thiadiazol-3-yl)-(Z)-2-methoxyiminoacetamide]-3-[(6-aminoimidazo[1,2-b]pyridazinium-1-yl)methyl]-3-cephem-4-carboxylate]
0.39 µg/mL (≈ 0.716 µM) | 0.78 µg/mL (≈ 1.43 µM) | 0.39 µg/mL (≈ 0.716 µM) | 0.78 µg/mL (≈ 1.43 µM) | – | – | – | – | – | CCO/N=C(\C(=O)N[C@@H]1C(=O)N2C(C(=O)[O-])=C(C[n+]3ccn4nc(N)ccc43)CS[C@H]12)c1nsc(N)n1 [Example 2, 7β-[2-(5-amino-1,2,4-thiadiazol-3-yl)-(Z)-2-ethoxyiminoacetamido]-3-[(6-aminoimidazo[1,2-b]pyridazinium-1-yl)methyl]-3-cephem-4-carboxylate]
